# Source: patent US11174233B1, “Anti-cancer compounds having oxazolone derivation” (King Abdulaziz University, priority 2019, dated 2021)
# Where two headings read alike, the source gives them in different places.
# How the values were obtained:
# [1] = test system: MCF-7 (breast) cancer cells; experiment: SRB cytotoxicity assay against MCF7; assay type: cell-based, human; settings: Homo sapiens, 72 h treatment
# Description: (§1) MCF-7 (breast) and PC3 (prostate) cancer cells were each grown in RPMI-1640 medium supplemented with 10% heat inactivated FBS, 50 units/mL of penicillin, and […] of streptomycin. The cultures were maintained at 37° C. in a humidified atmosphere containing 5% CO2. The cells were maintained as “monolayer culture” by serial sub-culturing.
# (§2) Cytotoxicity was determined using SRB method as previously described by Skehan et al. [Skehan P.; Storeng R.; Scudiero D.; Monks A.; McMahon J.; al., V. D. e., New colorimetric cytotoxicity assay for anticancer drug screening. […] Exponentially growing cells were collected using 0.25% Trypsin-EDTA and seeded in 96-well plates at 1000-2000 cells/well in RPMI-1640 supplemented medium. After 24 h, cells were incubated for 72 h with various concentrations of the tested compounds. Following 72 h treatment, the cells would be fixed with 10% trichloroacetic acid for 1 h at 4° C. Wells were stained for 10 min at room temperature with 0.4% SRB dissolved in 1% acetic acid. The plates were air dried for 24 h and the dye was solubilized with Tris-HCl for 5 min on a shaker at 1600 rpm. The optical density (OD) of each well was measured spectrophotometrically at 564 nm with an ELISA microplate reader (ChroMate-4300, FL, USA). The IC50 values were calculated according to the equation for Boltzman sigmoidal concentration—response curve using the nonlinear regression fitting models (Graph Pad, Prism Version 5).
# HL-60 leukemia cells [2] = experiment: CellTiter-Blue cell viability assay on HL-60; assay type: cell-based; settings: Homo sapiens, HL-60 cells, 48 h
# Description: (§3) HL-60 were purchased from CLS Cell Line Service GmbH (Eppelheim, Germany) and cultured in Roswell Park Memorial Institute-1640 medium (RPMI-1640; Thermo Fisher Scientific, Inc; Waltham, Mass., USA) supplemented with 10% fetal bovine serum (FBS; Thermo Fisher Scientific) and ciprofloxacin (10 μg/mL; Cipla Limited; Mumbai, India), at 37° C. with 5% CO2 in a humidified incubator.
# The CellTiter®-Blue Cell Viability assay was acquired from Promega Corporation (Madison, Wis., USA). Cell viability assay was performed as follows. The cells (10^4/well) were incubated with a concentration gradient of KIM-161C and KIM-241C ranging from 0.01 to 100 in 96-well plates for 48 h at 37° C. Subsequently, 20 μL CellTiter®-Blue Cell Viability reagent was added to each well and incubated for an additional 2 h for the development of fluorescence. The fluorescence emission was measured at 590 nm using the SpectraMax® i3× Multi-Mode microplate reader (Molecular Devices, LLC; San Jose, Calif., USA.) and plotted against drug concentrations to determine the mean inhibitory concentration of KIM-161C and KIM-241C producing 50% decrease in cell viability (IC50).
# HL-60 leukemia cells [3] = experiment: Apoptosis detection by caspase 3 activity in HL-60 cells; assay type: cell-based, human
# Description: as §3
# The caspase family of cysteine proteases are important regulators in the apoptosis. Caspase 3 belongs to the effector (caspase 3, 6 and 7) class of proteases and it is a key protease that is activated during early stages of apoptosis. […] The activated caspase 3 is a marker for cell apoptosis that proteolytically cleaves and activates other caspases and intracellular targets [Patel, T.; Gores, G. J.; Kaufmann, S. H., The role of proteases during apoptosis. FASEB journal: official publication of the Federation of American Societies for Experimental Biology 1996, 10 (5), 587-97].
# FITC conjugated active caspase-3 antibody (BD biosciences, USA) was used to detect the active form of caspase 3 in the cells undergoing apoptosis. […] The collected cells were washed twice in cold 1×PBS and then re-suspended in a 0.5 mL BD Cytofix/Cytoperm solution followed by 20 min incubation on ice. After incubation, cells were washed twice in a BD Perm/Wash buffer (1×) and then labelled with 5 μL of FITC rabbit anti-caspase 3 antibodies. The labelled cells were washed again with wash buffer and re-suspended in a 0.5 mL buffer and analyzed by acquiring a minimum of 5000 events on the FACS Aria III cell analyzer and sorter.
# HL-60 leukemia cells [4] = experiment: Cell cycle analysis of Hoechst 33342 stained HL-60 cells by flow cytometry; assay type: cell-based, human; settings: 48 h
# Description: as §3
# The cells (3.5×10^5) were incubated with two different concentrations of KIM-161C at 37° C. for 48 h. Subsequently, the cells were collected and washed twice with ice-cold PBS (1×). The washed cells were fixed on ice for 20 min using a fixation buffer containing paraformaldehyde. Hoechst 33342 (10 μg/mL; Thermo Fisher Scientific, Inc.) was used for staining. The cells were then incubated in the dark for 30 min on ice. A minimum total of 20,000 events were acquired using a BD FACSAria III flow cytometer. Flowlogic version 7.2.1 software (Inivai Technologies, Victoria, Australia) was used to obtain the percentages of cells in the G1, S, and G2/M phases in the singlet-gated population.
# [5] = test system: PC3 (prostate) cancer cells; experiment: SRB cytotoxicity assay against PC3; assay type: cell-based, human; settings: Homo sapiens, 72 h treatment
# Description: as §1, §2
SMILES,IC50 [1] [nM],"IC50 (HL-60 leukemia cells [2]; read-out: IC50 value, HL-60 cell viability) [nM]","increase in the cells undergoing apoptosis as compared to the basal apoptosis (HL-60 leukemia cells [3]; 362.5 nM, 24 h)","increase in the cells undergoing apoptosis as compared to the basal apoptosis (HL-60 leukemia cells [3]; 362.5 nM, 48 h)","increase in the cells undergoing apoptosis as compared to the basal apoptosis (HL-60 leukemia cells [3]; 725 nM, 24 h)","increase in the cells undergoing apoptosis as compared to the basal apoptosis (HL-60 leukemia cells [3]; 725 nM, 48 h) [fold]",cells in the G1 phase (HL-60 leukemia cells [4]; 362.5 nM),increase in the cells in G2/M stage as compared to the control (HL-60 leukemia cells [4]; 725 nM) [fold],"IC50 (HL-60 leukemia cells [2]; read-out: IC50 value, HL-60 cell viability (could not be obtained even at this concentration)) [nM]",melting point [°C],IC50 [5] [nM]
"COc1ccc(/C=C2\N=C(C)N(c3ccc(CC(=O)NCc4ccccc4)cc3)C2=O)cc1 [KIM-161C, (Z)—N-benzyl-2-(4-(4-(4-methoxybenzylidene)-2-methyl-5-oxo-4,5-dihydro-1H-imidazol-1-yl)phenyl)acetamide]",3500,262,more than 2 fold,more than 2 fold,more than 9.5 fold,> 8.45,increase,3,,,
"O=C(Cc1ccc(N2C(=O)/C(=C/c3ccco3)N=C2c2ccccc2)cc1)NCc1ccccc1 [KIM-241C, (Z)—N-benzyl-2-(4-(4-(furan-2-ylmethylene)-5-oxo-2-phenyl-4,5-dihydro-1H-imidazol-1-yl)phenyl)acetamide]",145,,,,,,,,> 20000,199 to 200,243
